For orientation: % Inhibition means the relative decrease from the control value, in per cent. The inhibition is the share of the control response that was lost under treatment. A lower inhibition goes with a response near the control.

In brackets after ≈: the same amount, converted by molar mass. Several values for one entry are separate records, joined by “and”; a condition that tells them apart may be missing. Equal values may be shown once.

Series [1] concerns Polio I. Nature of the series: organism not typed. Conditions: Vero. It counts as cell-based.
In another series the test system is Vero cells. Nature of the series: cytotoxicity against Vero cells. It counts as cell-based, African green monkey. The settings on record: Vero cells; for Cytotoxicity CTD50: 50% inhibition of the cell growth; for Cytotoxicity CTD0: maximal non-toxic concentration. The protocol: (§1) In preparing the compounds for testing, they were handled aseptically throughout. The compounds were dissolved in a minimum amount of a suitable solvent, and the final dilutions were made up to the required volume in a complete culture medium in a concentration not exceeding the predetermined maximum non-cytotoxic levels.
(§2) The cell cultures used in all primary in vitro antipicorna virus screening tests were an established cell line of the African green monkey kidney (VERO), a primary cell culture of the Cercopythecus monkey kidney, or human embryonic lung diploid cells WI-38.
(§3) The cytotoxic stuides were performed on each of the compounds to determine the level of response of the cells used to the potentially toxic action of the substances.
(§4) The cells were grown in test tubes in a suitable medium. Immediately before use the initial medium was replaced with the one which contained the test compound in an appropriate concentration. After the virus was added, the infected culture was incubated at 37° C for a number of days and the cytopathic effect of the virus observed and recorded. The results were read every day in all of the tubes and the destruction of cells assessed in precentage of the cell sheet destroyed: 0-25-50-75-100%. As controls, cells with only virus (for cytopathic effect) or with only the compound (for cytotoxic effect) were used as well as the normal, uninfected cells (no cytotoxic -- no cytopathic effects).

The subject of series [2] is viruses of the Picorna group. Nature of the series: antiviral activity (general statements). It counts as cell-based. The settings on record: result in words. The procedure: The in vitro activity of representative compounds of the present invention are set forth below.
as §1, §2, §4
Net difference in cytopathic effect between treated and control tubes expressed in percentage give the extent of the inhibitory activity of the substance.

Series [3] can be described thus: cytotoxicity against Vero cells. Type of series: cell-based, African green monkey. Conditions: african green monkey. The procedure: as §1, §2, §3, §4
The subject of series [4] is Polio I. Kind of series: cells. It counts as cell-based. Conditions: Primates.

As to “Acetylated 5-(3',4',5'-trimethoxybenzal) hydantoin [Example 23]”, the “% Inhibition” value with Polio I [1] (316 TCID50, 0.1 μg/ml) came to 0%; with Polio I [1] (316 TCID50, 0.3 μg/ml), 14%; in the series on Polio I [1] (316 TCID50, 0.7 μg/ml), 36%; in the series with Polio I [1] (316 TCID50, 1 μg/ml), 46%; in the series on Polio I [1] (316 TCID50, 3.3 μg/ml), 56%; in the series on Polio I [1] (316 TCID50, 6.7 μg/ml), 72%. For the same molecule, the “% Inhibition” value with Polio I [1] (316 TCID50, 10 μg/ml) was 96%. Also, in the series with Vero cells, the “Cytotoxicity CTD50” value was 50 µg/mL. Also, the “Cytotoxicity CTD0” value in the series on Vero cells was found to be 10 µg/mL.
Take “Acetylated 5-(3',4'-dimethoxybenzal) hydantoin”: the “degree of antiviral activity” value is on record as “highly effective against Picorna group of viruses” in series [2] (listed as Example 30); “exceptionally good antiviral activity” in series [2] (listed as acetylated 5-(3',4'-dimethoxybenzal) hydantoin (anhydrous sodium acetate and ace)).
Take “Acetylated 5-benzalhydantoin [Example 16]”: in the series with Vero cells, the “Cytotoxicity CTD50” value worked out at 83 µg/mL and the “Cytotoxicity CTD0” value is 10 µg/mL.
Turning to `COc1ccc(C=C2C(=O)N(C(C)=O)C(=O)N2C(C)=O)cc1OC` [Example 32, N,N-diacetylated 5-(3',4'-dimethoxybenzal) hydantoin], the “anti-viral activity in tissue culture tests” value in series [2] is reported as “much greater anti-viral activity than the former”. Also, in the series with Polio I [1] (316 TCID50, 1 μg/ml), testing at 1 µg/mL gave an inhibition of 100%. Besides, testing at 5 µg/mL in the series on Polio I [1] (316 TCID50, 5 μg/ml) gave an inhibition of 100%. This molecule registered an inhibition at 10 µg/mL with Polio I [1] (316 TCID50, 10 μg/ml) of 100%. Besides, the inhibition at 50 µg/mL with Polio I [1] (316 TCID50, 50 μg/ml) stood at 100%. Besides, in series [3] (vero cells, read-out: Cytotoxicity CTD50), the CC50 stood at 33 mg/L (≈ 99.3 µM). In addition, in series [3] (Vero cells, maximal non-toxic concentration, read-out: Cytotoxicity CTD0), the MNTC came out at 10 µg/mL.
With “Acetylated 5-(2',4',5'-trimethoxybenzal) hydantoin [Example 22]”, the “% Inhibition” value in the series on Polio I [1] (10 TCID50, 0.01 μg/ml) came out at 4%; in the series with Polio I [1] (10 TCID50, 0.03 μg/ml), 8%; in the series with Polio I [1] (10 TCID50, 0.07 μg/ml), 27%; in the series on Polio I [1] (10 TCID50, 0.1 μg/ml), 54%; in the series on Polio I [1] (10 TCID50, 0.3 μg/ml) it was 98%; with Polio I [1] (10 TCID50, 0.7 μg/ml), 98%. For the same molecule, the “% Inhibition” value with Polio I [1] (10 TCID50, 1 μg/ml) amounted to 100%; with Polio I [1] (100 TCID50, 0.01 μg/ml) it was 0%; with Polio I [1] (100 TCID50, 0.03 μg/ml), 0%; in the series with Polio I [1] (100 TCID50, 0.07 μg/ml), 25%; in the series on Polio I [1] (100 TCID50, 0.1 μg/ml) it was 50%; with Polio I [1] (100 TCID50, 0.3 μg/ml), 90%. In addition, the “% Inhibition” value in the series on Polio I [1] (100 TCID50, 0.7 μg/ml) worked out at 93%; in the series with Polio I [1] (100 TCID50, 1 μg/ml) it was 100%. The “Cytotoxicity CTD50” value in the series on Vero cells was above 100 µg/mL. Besides, the “Cytotoxicity CTD0” value in the series on Vero cells came out at 1 µg/mL.
Consider “Acetylated 5-(3'-methoxy-4'-acetoxybenzal) hydantoin [Example 15]”, for which, in the series with Vero cells, the “Cytotoxicity CTD50” value is above 100 µg/mL and the “Cytotoxicity CTD0” value is above 10 µg/mL.
In the series on Polio I [4], `COc1ccc(C=C2NC(=O)NC2=O)cc1OC` [5-(3',4'-DIMETHOXYBENZAL) HYDANTOIN, 5-(3',4'-Dimethoxybenzal) hydantoin] returned an inhibition at 50 µg/mL of 34% and an inhibition at 100 µg/mL of 45%.
For “N-monoacetylated 5-(3',4'-dimethoxybenzal) hydantoin [Example 31]”, the “anti-viral activity in tissue culture tests” value in series [2] was “more active than the unacetylated compound”. The “% Inhibition” value was 0% with Polio I [1] (316 TCID50, 1 μg/ml); 0% with Polio I [1] (316 TCID50, 5 μg/ml); 7% in the series on Polio I [1] (316 TCID50, 10 μg/ml); 84% with Polio I [1] (316 TCID50, 50 μg/ml). In addition, in the series on Vero cells, the “Cytotoxicity CTD50” value was 100 µg/mL. Moreover, the “Cytotoxicity CTD0” value with Vero cells was found to be 10 µg/mL.
Turning to “Acetylated 5-(3',5'-dimethoxybenzal) hydantoin [Example 21]”, the “% Inhibition” value in the series on Polio I [1] (10 TCID50, 0.5 μg/ml) was 15%; in the series on Polio I [1] (10 TCID50, 1 μg/ml), 50%; with Polio I [1] (10 TCID50, 5 μg/ml) it was 100%; with Polio I [1] (10 TCID50, 10 μg/ml) it was 100%; in the series with Polio I [1] (100 TCID50, 0.5 μg/ml), 0%; with Polio I [1] (100 TCID50, 1 μg/ml), 32%. In addition, the “% Inhibition” value turned out to be 100% in the series on Polio I [1] (100 TCID50, 5 μg/ml) and 100% in the series on Polio I [1] (100 TCID50, 10 μg/ml). The “Cytotoxicity CTD50” value with Vero cells is > 100 µg/mL and 100 µg/mL. Moreover, the “Cytotoxicity CTD0” value in the series with Vero cells is 100 µg/mL.

The record behind these values is patent US4065570A (priority 1975, dated 1977).
